The record followed here is the NIST ThermoML archive (doi:10.1016/j.jct.2011.04.018).

Numbers after ± are expanded uncertainties.

A short description of the first data set: activity coefficient (dimensionless); of the first substance listed, at infinite dilution; xn = mol fraction of the nth substance listed. The following applies: 308.15 K; 101 kPa; Liquid; Chromatography; x1 = 0.
Turning to `C=CCCCCCCCC` [1-decene] + O=S(=O)([N-]S(=O)(=O)C(F)(F)F)C(F)(F)F.OCCC[n+]1ccccc1, the activity coefficient came to 142 ± 10. Same read-out and setting: for `C=CCCCCC` [1-heptene] + O=S(=O)([N-]S(=O)(=O)C(F)(F)F)C(F)(F)F.OCCC[n+]1ccccc1 the value was 35.7 ± 2.4. Still for that read-out and setting: to `C#CCCCCC` [1-heptyne] + O=S(=O)([N-]S(=O)(=O)C(F)(F)F)C(F)(F)F.OCCC[n+]1ccccc1 belongs 10.1 ± 0.7.

Regarding `C#CCCCC` [1-hexyne] + O=S(=O)([N-]S(=O)(=O)C(F)(F)F)C(F)(F)F.OCCC[n+]1ccccc1, the activity coefficient is 6.38 ± 0.43. As to `C#CCCCCCC` [1-octyne] + O=S(=O)([N-]S(=O)(=O)C(F)(F)F)C(F)(F)F.OCCC[n+]1ccccc1, the activity coefficient was 16.2 ± 1.1. For the compound `C=CCCC` [1-pentene] + O=S(=O)([N-]S(=O)(=O)C(F)(F)F)C(F)(F)F.OCCC[n+]1ccccc1, the activity coefficient stood at 14.2 ± 1. As for `CC(C)CC(C)(C)C` [2,2,4-trimethylpentane] + O=S(=O)([N-]S(=O)(=O)C(F)(F)F)C(F)(F)F.OCCC[n+]1ccccc1, the activity coefficient turned out to be 81.7 ± 5.6.

As for `CCC(C)(C)C` [2,2-dimethylbutane] + O=S(=O)([N-]S(=O)(=O)C(F)(F)F)C(F)(F)F.OCCC[n+]1ccccc1, the activity coefficient worked out at 41 ± 3. Same read-out and setting: for `CCC(C)(C)OC` [2-methoxy-2-methylbutane] + O=S(=O)([N-]S(=O)(=O)C(F)(F)F)C(F)(F)F.OCCC[n+]1ccccc1 the value was 4.37 ± 0.3; for `COC(C)(C)C` [2-methoxy-2-methylpropane] + O=S(=O)([N-]S(=O)(=O)C(F)(F)F)C(F)(F)F.OCCC[n+]1ccccc1, 2.63 ± 0.18. On the same count and under the same terms, for `CCC(C)CC` [3-methylpentane] + O=S(=O)([N-]S(=O)(=O)C(F)(F)F)C(F)(F)F.OCCC[n+]1ccccc1 the value was 44 ± 3; for `C1CCCCCC1` [cycloheptane] + O=S(=O)([N-]S(=O)(=O)C(F)(F)F)C(F)(F)F.OCCC[n+]1ccccc1, 36.3 ± 2.5; for `C1CCCCC1` [cyclohexane] + O=S(=O)([N-]S(=O)(=O)C(F)(F)F)C(F)(F)F.OCCC[n+]1ccccc1, 25.5 ± 1.7. `C1=CCCCC1` [cyclohexene] + O=S(=O)([N-]S(=O)(=O)C(F)(F)F)C(F)(F)F.OCCC[n+]1ccccc1: the activity coefficient is 11.7 ± 0.8. With `C1CCCCCCC1` [cyclooctane] + O=S(=O)([N-]S(=O)(=O)C(F)(F)F)C(F)(F)F.OCCC[n+]1ccccc1, the activity coefficient is 51.9 ± 3.6.

Still in this data set, the particulars now being: 318.15 K; 101 kPa; Liquid; Chromatography; x1 = 0.
Regarding `Cc1ccccc1C` [1,2-dimethylbenzene] + O=S(=O)([N-]S(=O)(=O)C(F)(F)F)C(F)(F)F.OCCC[n+]1ccccc1, the activity coefficient stood at 3.11 ± 0.21. The same measure, in the same setting: to `Cc1cccc(C)c1` [1,3-dimethylbenzene] + O=S(=O)([N-]S(=O)(=O)C(F)(F)F)C(F)(F)F.OCCC[n+]1ccccc1 belongs 3.58 ± 0.24. Still for that read-out and setting: for `Cc1ccc(C)cc1` [1,4-dimethylbenzene] + O=S(=O)([N-]S(=O)(=O)C(F)(F)F)C(F)(F)F.OCCC[n+]1ccccc1 the value was 3.58 ± 0.24. For `C1COCCO1` [1,4-dioxane] + O=S(=O)([N-]S(=O)(=O)C(F)(F)F)C(F)(F)F.OCCC[n+]1ccccc1, the activity coefficient was determined as 0.514 ± 0.038. As for `C=CCCCCCCCC` [1-decene] + O=S(=O)([N-]S(=O)(=O)C(F)(F)F)C(F)(F)F.OCCC[n+]1ccccc1, the activity coefficient worked out at 128 ± 9. For `C=CCCCCC` [1-heptene] + O=S(=O)([N-]S(=O)(=O)C(F)(F)F)C(F)(F)F.OCCC[n+]1ccccc1, the activity coefficient was 33.1 ± 2.3. As for `C#CCCCCC` [1-heptyne] + O=S(=O)([N-]S(=O)(=O)C(F)(F)F)C(F)(F)F.OCCC[n+]1ccccc1, the activity coefficient is 9.81 ± 0.67. Still for that read-out and setting: to `C#CCCCC` [1-hexyne] + O=S(=O)([N-]S(=O)(=O)C(F)(F)F)C(F)(F)F.OCCC[n+]1ccccc1 belongs 6.25 ± 0.43; to `C#CCCCCCC` [1-octyne] + O=S(=O)([N-]S(=O)(=O)C(F)(F)F)C(F)(F)F.OCCC[n+]1ccccc1, 15.5 ± 1.1. As to `C=CCCC` [1-pentene] + O=S(=O)([N-]S(=O)(=O)C(F)(F)F)C(F)(F)F.OCCC[n+]1ccccc1, the activity coefficient stood at 13.5 ± 0.9.

With `CC(C)CC(C)(C)C` [2,2,4-trimethylpentane] + O=S(=O)([N-]S(=O)(=O)C(F)(F)F)C(F)(F)F.OCCC[n+]1ccccc1, the activity coefficient came out at 73.9 ± 5.1. The same measure, in the same setting: to `CCC(C)(C)C` [2,2-dimethylbutane] + O=S(=O)([N-]S(=O)(=O)C(F)(F)F)C(F)(F)F.OCCC[n+]1ccccc1 belongs 37.3 ± 2.6; to `CCC(C)(C)OC` [2-methoxy-2-methylbutane] + O=S(=O)([N-]S(=O)(=O)C(F)(F)F)C(F)(F)F.OCCC[n+]1ccccc1, 4.45 ± 0.3; to `COC(C)(C)C` [2-methoxy-2-methylpropane] + O=S(=O)([N-]S(=O)(=O)C(F)(F)F)C(F)(F)F.OCCC[n+]1ccccc1, 2.74 ± 0.19. Take `CCC(C)CC` [3-methylpentane] + O=S(=O)([N-]S(=O)(=O)C(F)(F)F)C(F)(F)F.OCCC[n+]1ccccc1: the activity coefficient stood at 40 ± 2.7.

For `CC(=O)O` [acetic acid] + O=S(=O)([N-]S(=O)(=O)C(F)(F)F)C(F)(F)F.OCCC[n+]1ccccc1, the activity coefficient amounted to 0.255 ± 0.03. The same measure, in the same setting: for `CC(C)=O` [acetone] + O=S(=O)([N-]S(=O)(=O)C(F)(F)F)C(F)(F)F.OCCC[n+]1ccccc1 the value was 0.403 ± 0.034; for `c1ccccc1` [benzene] + O=S(=O)([N-]S(=O)(=O)C(F)(F)F)C(F)(F)F.OCCC[n+]1ccccc1, 1.58 ± 0.1. For `CCCCO` [butan-1-ol] + O=S(=O)([N-]S(=O)(=O)C(F)(F)F)C(F)(F)F.OCCC[n+]1ccccc1, the activity coefficient came to 2.27 ± 0.15. On the same count and under the same terms, to `C1CCCCCC1` [cycloheptane] + O=S(=O)([N-]S(=O)(=O)C(F)(F)F)C(F)(F)F.OCCC[n+]1ccccc1 belongs 32.8 ± 2.2; to `C1CCCCC1` [cyclohexane] + O=S(=O)([N-]S(=O)(=O)C(F)(F)F)C(F)(F)F.OCCC[n+]1ccccc1, 23.2 ± 1.6. As for `C1=CCCCC1` [cyclohexene] + O=S(=O)([N-]S(=O)(=O)C(F)(F)F)C(F)(F)F.OCCC[n+]1ccccc1, the activity coefficient came out at 11 ± 0.8. Same read-out and setting: to `C1CCCCCCC1` [cyclooctane] + O=S(=O)([N-]S(=O)(=O)C(F)(F)F)C(F)(F)F.OCCC[n+]1ccccc1 belongs 46.4 ± 3.2.

Staying with this data set, now noted: 328.15 K; 101 kPa; Liquid; Chromatography; x1 = 0.
As for `Cc1ccccc1C` [1,2-dimethylbenzene] + O=S(=O)([N-]S(=O)(=O)C(F)(F)F)C(F)(F)F.OCCC[n+]1ccccc1, the activity coefficient was 3.12 ± 0.21.
